Patent publication US20040023362A1, “Degradation of polycyclic aromatic hydrocarbons by microorganisms” (priority 2000, published 2004)
In brackets after ≈: the same amount, converted by molar mass.

Legend:
[1] = tested on: P. janthinellum VUO 10,201; experiment: Degradation of high molecular weight PAHs by axenic cultures; assay type: cell-based, Penicillium janthinellum
Experimental: (§1) PAH concentrations in the DCM extracts were measured on a Varian Star 3400 gas chromatograph, equipped with a flame ionization detector, using a BPX-5 capillary column (25 m×0.22 mm). The nitrogen carrier flow rate was 0.8 ml min^−1 with a pressure of 20 psi under split conditions (95:1). The oven temperature was programmed at 200° C. for 1 min, followed by a linear increase of 10° C. min^−1 to 320° C.; this temperature was held for 15 min. Injector and detector temperatures were maintained at 300° C. The peak areas of both internal standard and PAH were used to calculate peak area ratios. Ratios obtained for each sample, as well as controls, were compared to those of PAH standards.
(§2) PAH degradation experiments using axenic bacterial and fungal cultures, and fungal-bacterial co-culture, were performed in 30 ml reaction vials containing 10 ml of medium. Before inoculation, 0.1 ml of PAH stock solution (either single PAH or mixed PAH stock as described above) was introduced into the medium. This medium was then inoculated with microorganisms to produce either axenic cultures or co-cultures. Axenic cultures were inoculated with either bacteria (1 ml) to provide an initial cell population of approximately 10^4 cells ml^−1, or with mycelial pellets (0.25 g wet weight) in 10 ml of BSM. For the co-culture experiments, BSM (10 ml) contained bacteria (10^4 cells ml^−1) and 0.25 g wet weight of mycelial pellets. Experiments to investigate of co-metabolic PAH degradation by P. janthinellum were conducted with the PAH in BSM supplemented with glucose (1% final concentration) or MYPD medium. […] Medium (10 ml) was inoculated with fungal or bacterial culture using the same inoculum size as described above. All cultures were aseptically flushed with filtered (0.22 μm) air (0.2 litres min^−1) for 5 seconds on the day of inoculation and every 7 days thereafter. Abiotic controls were sterile medium containing only PAH(s). Killed-cell controls were the PAH-containing medium inoculated with a killed microbial population. The experimental cultures were conducted in triplicate, and all controls were run in duplicate. All cultures were incubated in the dark at 30° C./175 rpm. At designated time intervals the entire culture (10 ml) was sacrificed for the PAH-extraction procedure and biomass determinations.

[2] = tested on: S. maltophilia VUN 10,010; experiment: Degradation of a PAH mixture by VUN 10,010 with surfactant, low initial cell population; assay type: cell-based, Stenotrophomonas maltophilia; conditions: for Maximum Specific Degradation Rate: — = not appreciable
Experimental: The incubations were conducted in BSM at 30° C., using low initial cell populations. The PAH remaining was calculated as a percentage relative to the PAH recovered from the uninoculated control. Averages for the test cultures are from triplicate experiments.
A low initial cell population of around 9×10^3 cells ml^−1 was used.

[3] = tested on: Bacterial consortium VUN 10,009; experiment: Degradation of high molecular weight PAHs by axenic cultures; assay type: cell-based
Experimental: as §1, §2

VUN 10,010 = experiment: as above; assay type: cell-based, Stenotrophomonas maltophilia
Experimental: as §1, §2

[4] = tested on: S. maltophilia VUN 10,010; experiment: Degradation of single high molecular weight PAHs by high initial populations of VUN 10,010 with surfactant; assay type: cell-based, Stenotrophomonas maltophilia
Experimental: […] Incubations contained a single PAH in BSM at 30° C. The PAH remaining was calculated as a percentage relative to the PAH recovered from the […]. Averages for the test cultures are from triplicate experiments.
Tergitol NP-10 (5 and 10 g l^−1) was added to BSM broths each containing a single high molecular weight PAH.

physchem = experiment: physchem
Experimental: PAHs (approximately 1 g l^−1) were added to a 10 ml solution of BSM plus surfactant in a 30 ml glass reaction vial, which was sealed with an aluminium cap fitted with a septum. Surfactant concentrations corresponded to levels above, below, and at the CMC, and replicates were set up to allow sampling in duplicate at different time intervals up to 72 h. Incubation was performed at 30° C. and 175 rpm. The entire vial contents was collected by syringe and expressed through a preconditioned membrane filter (0.22 μm, Sartorius AG, Germany) to remove solid-phase crystalline PAH while allowing solubilized PAH in the aqueous phase and micellar pseudophase to pass into sterile vials. The filter was preconditioned by purging the filter with a few mls of sample solution to allow sorption saturation of the internal surfaces of the syringe, filter and needle. The filtrates were extracted with dichloromethane (DCM), and the concentration of solubilized PAH was determined by GC-FID as described below.
The effectiveness of a particular surfactant in solubilizing a given PAH can be assessed by determining the molar solubilization ratio (MSR) and micelle/water partition coefficient (Km). In our study, the concentrations of added PAHs were well in excess of aqueous saturation concentrations; therefore the MSR value of each compound can be obtained from the slope of the curve generated from a plot of PAH concentration versus surfactant concentration for surfactant concentrations above CMC (Edwards et al, 1991).
Km values can be determined from the measured MSR values according to the following equation (Edwards et al, 1991): [formula]
^SPAH, CMC is the apparent solubility of the PAH (mol l^−1) at surfactant CMC. VW is the molar volume of water at 30° C. ie. 0.018015 l mol^−1(Rogers and Mayhew, 1981).

[5] = Tergitol NP-10 5 g l^−1, Mixed PAH
[6] = BSM + PYR (pyrene 250 mg l^−1), 28 day samples
[7] = Tergitol NP-10 5 g l^−1, Single PAH
[8] = Tergitol NP-10 10 g l^−1, Single PAH
[9] = 30 °C, aqueous with cosolvent or surfactant or cyclodextrin, thermodynamic from solid

Row | SMILES | PAH removal (%) ([1]; BSM, 56 day samples) | PAH removal (%) ([1]; BSM^g, 28 day samples) | PAH removal (%) ([1]; MYPD, 28 day samples) | Maximum Specific Degradation Rate ([2]; No Surfactant, Mixed PAH) | percentage change in maximum specific degradation rate due to surfactant addition [2, 5] | Maximum Specific Degradation Rate [2, 5] | PAH removal (%) [3, 6] | PAH removal (%) ([3]; BSM, 56 day samples) | PAH removal (%) (VUN 10,010; [6]) | PAH removal (%) (VUN 10,010; BSM, 56 day samples) | Maximum Specific Degradation Rate ([4]; Brij 35 5 g l^−1, Single PAH) | percentage change in maximum specific degradation rate due to surfactant addition ([4]; Brij 35 5 g l^−1, Single PAH) | Maximum Specific Degradation Rate ([4]; Brij 35 10 g l^−1, Single PAH) | percentage change in maximum specific degradation rate due to surfactant addition ([4]; Brij 35 10 g l^−1, Single PAH) | Maximum Specific Degradation Rate ([4]; No Surfactant, Single PAH) | Maximum Specific Degradation Rate [4, 7] | percentage change in maximum specific degradation rate due to surfactant addition [4, 7] | Maximum Specific Degradation Rate [4, 8] | percentage change in maximum specific degradation rate due to surfactant addition [4, 8] | solubility (physchem; 30° C.) [µM] | further results
1 | c1ccc2cc3c(ccc4ccccc43)cc2c1 [Benz[a]anthracene, benz[a]anthracene] | 9.1 ± 1.4 | 18.1 ± 2.3 | 23.1 ± 1.2 | 1.71 mg PAH degraded mg^−1 protein day^−1 | +90% | 3.25 mg PAH degraded mg^−1 protein day^−1 | 9.6 + 0.7% | 7.8 ± 0.3 | 19.84 + 0.3% | 8.2 ± 1.6 | 7.18 mg PAH degraded mg^−1 protein day^−1 | +63% | 7.37 mg PAH degraded mg^−1 protein day^−1 | +67% | 4.41 mg PAH degraded mg^−1 protein day^−1 | 9.66 mg PAH degraded mg^−1 protein day^−1 | +119% | 11.14 mg PAH degraded mg^−1 protein day^−1 | +153% |  | 
2 | c1ccc2c(c1)cc1ccc3cccc4ccc2c1c34 [Benzo[a]pyrene, benzo[a]pyrene] | 16.9 ± 0.2 | 56.5 ± 2.4 | 72.2 ± 3.2 | 1.43 mg PAH degraded mg^−1 protein day^−1 | +201% | 4.30 mg PAH degraded mg^−1 protein day^−1 | 23.3 + 0.5% | 6.7 ± 0.9 | 32.2 + 1.2% | 12.3 ± 1.0 | 5.84 mg PAH degraded mg^−1 protein day^−1 | −6% | 5.47 mg PAH degraded mg^−1 protein day^−1 | −12% | 6.21 mg PAH degraded mg^−1 protein day^−1 | 6.73 mg PAH degraded mg^−1 protein day^−1 | +8% | 7.90 mg PAH degraded mg^−1 protein day^−1 | 27% | ~0.0159 (≈ 0.00401 µg/mL) | solubility (physchem; [9]): 160 to 180 µM (≈ 40.4 to 45.4 µg/mL)
3 | c1ccc2c(c1)ccc1c3ccccc3ccc21 [Chrysene, chrysene] | 12.2 ± 0.4 | 25.6 ± 1.9 | 31.7 ± 3.7 | 1.42 mg PAH degraded mg^−1 protein day^−1 | +94% | 2.76 mg PAH degraded mg^−1 protein day^−1 | 12.1 + 0.4% | 8.2 ± 0.5 | 28.3 + 1.2% | 9.1 ± 1.2 | 7.35 mg PAH degraded mg^−1 protein day^−1 | +64% | 7.93 mg PAH degraded mg^−1 protein day^−1 | +77% | 4.49 mg PAH degraded mg^−1 protein day^−1 | 6.44 mg PAH degraded mg^−1 protein day^−1 | +43% | 4.16 mg PAH degraded mg^−1 protein day^−1 | −7% |  | PAH degradation rate in the presence of surfactants ([4]; Tergitol NP-10 5 and 10 g l^−1, high initial cell population): did not show improved PAH degradation rate
4 | c1ccc2c(c1)-c1cccc3cccc-2c13 [Fluoranthene, fluoranthene] |  |  |  | 1.02 mg PAH degraded mg^−1 protein day^−1 | +9% | 1.11 mg PAH degraded mg^−1 protein day^−1 |  |  |  |  | 3.71 mg PAH degraded mg^−1 protein day^−1 | +28% | 12.11 mg PAH degraded mg^−1 protein day^−1 | +318% | 2.90 mg PAH degraded mg^−1 protein day^−1 | 4.54 mg PAH degraded mg^−1 protein day^−1 | +57% | 4.59 mg PAH degraded mg^−1 protein day^−1 | +58% | ~1.37 (≈ 0.277 µg/mL) | solubility (physchem; [9]): 730 to 810 µM (≈ 148 to 164 µg/mL)
5 | c1cc2ccc3cccc4ccc(c1)c2c34 [Pyrene, pyrene] | 3.3 ± 0.3 | 80.3 ± 2.8 | 93.6 ± 2.8 |  |  |  |  | 100.0 ± 0.0 |  | 100.0 ± 0.0 |  |  |  |  |  |  |  |  |  |  | 
